Among the data in patent US4311685A, “Assay method and kit” (Burroughs Wellcome Co., priority 1979, dated 1982) are fraction unbound values, retold here.

Usually fraction unbound stands for the share of the substance not bound to proteins or other matrix.

The series is described as follows: in vitro. As to conditions: human, plasma.

As for `CC(C)NCC(O)COc1cccc2ccccc12` (racemic) [propranolol], the free fraction (fraction unbound) at 12 h, 0.07 µM came out at 0.117.
